{"source": "patent US6355799B1", "about": "“Substituted benzene compounds, process for their preparation, and herbicidal and defoliant compositions containing them” (ISK Americas Incorporated, priority 1997, dated 2002)", "assay_type_in_all_cases": "in vivo", "key": {"[1]": {"test_system": "redroot pigweed (Amaranthus retroflexus, AMARE)", "experiment": "Pre-emerge test, greenhouse herbicide activity screening", "settings": "rating scale 0-100, 14 days after application", "summary_of_the_method": "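Herbicidal damage is scored 0 (none) to 100 (complete plant death) two weeks after a simulated field spray. Rates span 15–1000 g ai/ha, delivered in acetone at 187 l/ha. For post-emergence treatments, plants have 2–3 leaves and the spray carries 0.25% v/v non-ionic surfactant.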"}, "[2]": {"test_system": "barnyardgrass (Echinochloa crus-galli, ECHCG)", "experiment": "Pre-emerge test, greenhouse herbicide activity screening", "settings": "rating scale 0-100, 14 days after application", "summary_of_the_method": "(§1)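 Sandy loam pots; pre-emerge: sown 1 d pre-spray, surface-watered after, then bottom-watered. Post-emerge: sown 8–21 d before, 2–3 leaf stage, + 0.25% v/v NIS, bottom-watered. Acetone, 187 l/ha track spray, 15–1000 g ai/ha. 0–100 injury score, day 14.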"}, "[3]": {"test_system": "green foxtail (Setaria viridis, SETVI)", "experiment": "Pre-emerge test, greenhouse herbicide activity screening", "settings": "rating scale 0-100, 14 days after application", "summary_of_the_method": "as §1"}, "[4]": {"test_system": "ivyleaf morningglory (Ipomoea hederacea, IPOHE)", "experiment": "Pre-emerge test, greenhouse herbicide activity screening", "settings": "rating scale 0-100, 14 days after application", "summary_of_the_method": "as §1"}, "[5]": {"test_system": "johnsongrass (Sorghum halepense, SORHA)", "experiment": "Pre-emerge test, greenhouse herbicide activity screening", "settings": "rating scale 0-100, 14 days after application", "summary_of_the_method": "as §1"}, "[6]": {"test_system": "lambsquarters (Chenopodium album, CHEAL)", "experiment": "Pre-emerge test, greenhouse herbicide activity screening", "settings": "rating scale 0-100, 14 days after application", "summary_of_the_method": "as §1"}, "[7]": {"test_system": "large crabgrass (Digitaria sanguinalis, DIGSA)", "experiment": "Pre-emerge test, greenhouse herbicide activity screening", "settings": "rating scale 0-100, 14 days after application", "summary_of_the_method": "as §1"}, "[8]": {"test_system": "sicklepod (Cassia obtusifolia, CASOB)", "experiment": "Pre-emerge test, greenhouse herbicide activity screening", "settings": "rating scale 0-100, 14 days after application", "summary_of_the_method": "as §1"}, "[9]": {"test_system": "velvetleaf (Abutilon theophrasti, ABUTH)", "experiment": "Pre-emerge test, greenhouse herbicide activity screening", "settings": "rating scale 0-100, 14 days after application", "summary_of_the_method": "as §1"}, "[10]": {"test_system": "field corn (Zea mays L., var. Dekalb 535, CORN)", "experiment": "Pre-emerge test, crop safety", "settings": "rating scale 0-100, 14 days after application", "summary_of_the_method": "(§2)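 Compounds in acetone were track-sprayed at 187 l/ha, 15–1000 g ai/ha, onto sandy loam pots. Pre-emerge seeds were sown one day before spraying, with surface watering afterwards. Post-emerge plants were at the 2–3 leaf stage and sprayed with 0.25% v/v non-ionic surfactant. Injury was rated 0–100 at 14 days.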"}, "[11]": {"test_system": "upland rice (Oryza sp., var. Tebonnet, RICE)", "experiment": "Pre-emerge test, crop safety", "settings": "rating scale 0-100, 14 days after application", "summary_of_the_method": "as §2"}, "[12]": {"test_system": "barnyardgrass (Echinochloa crus-galli, ECHCG)", "experiment": "Post-emerge test, greenhouse herbicide activity screening", "settings": "rating scale 0-100 (0 no damage, 100 complete death), 14 days after application", "summary_of_the_method": "(§3)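 Fourteen days after spraying, crop and weed injury was graded visually from 0, no effect, to 100, every plant dead. Test substances were dissolved in acetone and applied at 15–1000 g ai/ha with a flat-fan nozzle. Application was either pre-emergence, one day after sowing, or post-emergence at the 2–3 leaf stage.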"}, "[13]": {"test_system": "green foxtail (Setaria viridis, SETVI)", "experiment": "Post-emerge test, greenhouse herbicide activity screening", "settings": "rating scale 0-100 (0 no damage, 100 complete death), 14 days after application", "summary_of_the_method": "as §3"}, "[14]": {"test_system": "ivyleaf morningglory (Ipomoea hederacea, IPOHE)", "experiment": "Post-emerge test, greenhouse herbicide activity screening", "settings": "rating scale 0-100 (0 no damage, 100 complete death), 14 days after application", "summary_of_the_method": "as §3"}, "[15]": {"test_system": "johnsongrass (Sorghum halepense, SORHA)", "experiment": "Post-emerge test, greenhouse herbicide activity screening", "settings": "rating scale 0-100 (0 no damage, 100 complete death), 14 days after application", "summary_of_the_method": "as §3"}, "[16]": {"test_system": "lambsquarters (Chenopodium album, CHEAL)", "experiment": "Post-emerge test, greenhouse herbicide activity screening", "settings": "rating scale 0-100 (0 no damage, 100 complete death), 14 days after application", "summary_of_the_method": "as §3"}, "[17]": {"test_system": "large crabgrass (Digitaria sanguinalis, DIGSA)", "experiment": "Post-emerge test, greenhouse herbicide activity screening", "settings": "rating scale 0-100 (0 no damage, 100 complete death), 14 days after application", "summary_of_the_method": "as §3"}, "[18]": {"test_system": "redroot pigweed (Amaranthus retroflexus, AMARE)", "experiment": "Post-emerge test, greenhouse herbicide activity screening", "settings": "rating scale 0-100 (0 no damage, 100 complete death), 14 days after application", "summary_of_the_method": "as §3"}, "[19]": {"test_system": "sicklepod (Cassia obtusifolia, CASOB)", "experiment": "Post-emerge test, greenhouse herbicide activity screening", "settings": "rating scale 0-100 (0 no damage, 100 complete death), 14 days after application", "summary_of_the_method": "as §3"}, "[20]": {"test_system": "velvetleaf (Abutilon theophrasti, ABUTH)", "experiment": "Post-emerge test, greenhouse herbicide activity screening", "settings": "rating scale 0-100 (0 no damage, 100 complete death), 14 days after application", "summary_of_the_method": "as §3"}, "[21]": {"test_system": "field corn (Zea mays L., var. Dekalb 535, CORN)", "experiment": "Post-emerge test, crop safety", "settings": "rating scale 0-100 (0 no damage, 100 complete death), 14 days after application", "summary_of_the_method": "as §1"}, "[22]": {"test_system": "upland rice (Oryza sp., var. Tebonnet, RICE)", "experiment": "Post-emerge test, crop safety", "settings": "rating scale 0-100 (0 no damage, 100 complete death), 14 days after application", "summary_of_the_method": "as §1"}}, "data": [{"molecule": "COc1c(Cl)cc(F)c(-n2c(=O)cc(C(F)(F)F)n(C)c2=O)c1CC(C)(Cl)C(=O)OCc1ccccc1", "note": "(centres unmarked) [14-41]", "values": [{"measurement": "Pre-emerge herbicidal activity, phytotoxicity rating AMARE", "setting": "[1]; 63 g ai/ha", "value": 100}, {"measurement": "Pre-emerge herbicidal activity, phytotoxicity rating AMARE", "setting": "[1]; 250 g ai/ha", "value": 100}, {"measurement": "Pre-emerge herbicidal activity, phytotoxicity rating ECHCG", "setting": "[2]; 63 g ai/ha", "value": 0}, {"measurement": "Pre-emerge herbicidal activity, phytotoxicity rating ECHCG", "setting": "[2]; 250 g ai/ha", "value": 80}, {"measurement": "Pre-emerge herbicidal activity, phytotoxicity rating SETVI", "setting": "[3]; 63 g ai/ha", "value": 30}, {"measurement": "Pre-emerge herbicidal activity, phytotoxicity rating SETVI", "setting": "[3]; 250 g ai/ha", "value": 100}, {"measurement": "Pre-emerge herbicidal activity, phytotoxicity rating IPOHE", "setting": "[4]; 63 g ai/ha", "value": 0}, {"measurement": "Pre-emerge herbicidal activity, phytotoxicity rating IPOHE", "setting": "[4]; 250 g ai/ha", "value": 40}, {"measurement": "Pre-emerge herbicidal activity, phytotoxicity rating SORHA", "setting": "[5]; 63 g ai/ha", "value": 0}, {"measurement": "Pre-emerge herbicidal activity, phytotoxicity rating SORHA", "setting": "[5]; 250 g ai/ha", "value": 0}, {"measurement": "Pre-emerge herbicidal activity, phytotoxicity rating CHEAL", "setting": "[6]; 63 g ai/ha", "value": 100}, {"measurement": "Pre-emerge herbicidal activity, phytotoxicity rating CHEAL", "setting": "[6]; 250 g ai/ha", "value": 100}, {"measurement": "Pre-emerge herbicidal activity, phytotoxicity rating DIGSA", "setting": "[7]; 63 g ai/ha", "value": 50}, {"measurement": "Pre-emerge herbicidal activity, phytotoxicity rating DIGSA", "setting": "[7]; 250 g ai/ha", "value": 100}, {"measurement": "Pre-emerge herbicidal activity, phytotoxicity rating CASOB", "setting": "[8]; 63 g ai/ha", "value": 0}, {"measurement": "Pre-emerge herbicidal activity, phytotoxicity rating CASOB", "setting": "[8]; 250 g ai/ha", "value": 0}, {"measurement": "Pre-emerge herbicidal activity, phytotoxicity rating ABUTH", "setting": "[9]; 63 g ai/ha", "value": 90}, {"measurement": "Pre-emerge herbicidal activity, phytotoxicity rating ABUTH", "setting": "[9]; 250 g ai/ha", "value": 100}, {"measurement": "Pre-emerge phytotoxicity rating, crop damage CORN", "setting": "[10]; 63 g ai/ha", "value": 0}, {"measurement": "Pre-emerge phytotoxicity rating, crop damage CORN", "setting": "[10]; 250 g ai/ha", "value": 0}, {"measurement": "Pre-emerge phytotoxicity rating, crop damage RICE", "setting": "[11]; 63 g ai/ha", "value": 0}, {"measurement": "Pre-emerge phytotoxicity rating, crop damage RICE", "setting": "[11]; 250 g ai/ha", "value": 50}, {"measurement": "Post-emerge Herbicidal Activity, phytotoxicity rating ECHCG", "setting": "[12]; Rate 63 g ai/ha", "value": 100}, {"measurement": "Post-emerge Herbicidal Activity, phytotoxicity rating ECHCG", "setting": "[12]; Rate 250 g ai/ha", "value": 100}, {"measurement": "Post-emerge Herbicidal Activity, phytotoxicity rating SETVI", "setting": "[13]; Rate 63 g ai/ha", "value": 90}, {"measurement": "Post-emerge Herbicidal Activity, phytotoxicity rating SETVI", "setting": "[13]; Rate 250 g ai/ha", "value": 100}, {"measurement": "Post-emerge Herbicidal Activity, phytotoxicity rating IPOHE", "setting": "[14]; Rate 63 g ai/ha", "value": 30}, {"measurement": "Post-emerge Herbicidal Activity, phytotoxicity rating IPOHE", "setting": "[14]; Rate 250 g ai/ha", "value": 50}, {"measurement": "Post-emerge Herbicidal Activity, phytotoxicity rating SORHA", "setting": "[15]; Rate 63 g ai/ha", "value": 40}, {"measurement": "Post-emerge Herbicidal Activity, phytotoxicity rating SORHA", "setting": "[15]; Rate 250 g ai/ha", "value": 70}, {"measurement": "Post-emerge Herbicidal Activity, phytotoxicity rating CHEAL", "setting": "[16]; Rate 63 g ai/ha", "value": 100}, {"measurement": "Post-emerge Herbicidal Activity, phytotoxicity rating CHEAL", "setting": "[16]; Rate 250 g ai/ha", "value": 100}, {"measurement": "Post-emerge Herbicidal Activity, phytotoxicity rating DIGSA", "setting": "[17]; Rate 63 g ai/ha", "value": 100}, {"measurement": "Post-emerge Herbicidal Activity, phytotoxicity rating DIGSA", "setting": "[17]; Rate 250 g ai/ha", "value": 100}, {"measurement": "Post-emerge Herbicidal Activity, phytotoxicity rating AMARE", "setting": "[18]; Rate 63 g ai/ha", "value": 100}, {"measurement": "Post-emerge Herbicidal Activity, phytotoxicity rating AMARE", "setting": "[18]; Rate 250 g ai/ha", "value": 100}, {"measurement": "Post-emerge Herbicidal Activity, phytotoxicity rating CASOB", "setting": "[19]; Rate 63 g ai/ha", "value": 0}, {"measurement": "Post-emerge Herbicidal Activity, phytotoxicity rating CASOB", "setting": "[19]; Rate 250 g ai/ha", "value": 0}, {"measurement": "Post-emerge Herbicidal Activity, phytotoxicity rating ABUTH", "setting": "[20]; Rate 63 g ai/ha", "value": 100}, {"measurement": "Post-emerge Herbicidal Activity, phytotoxicity rating ABUTH", "setting": "[20]; Rate 250 g ai/ha", "value": 100}, {"measurement": "Post-emerge phytotoxicity rating CORN (crop damage)", "setting": "[21]; Rate 63 g ai/ha", "value": 100}, {"measurement": "Post-emerge phytotoxicity rating CORN (crop damage)", "setting": "[21]; Rate 250 g ai/ha", "value": 100}, {"measurement": "Post-emerge phytotoxicity rating RICE (crop damage)", "setting": "[22]; Rate 63 g ai/ha", "value": 20}, {"measurement": "Post-emerge phytotoxicity rating RICE (crop damage)", "setting": "[22]; Rate 250 g ai/ha", "value": 95}]}]}
